Literature values, collected in article PMC6021394, “Novel haptens and monoclonal antibodies with subnanomolar affinity for a classical analytical target, ochratoxin A” (Scientific Reports, 2018).

With `C[C@@H]1Cc2c(Cl)cc(C(=O)N[C@@H](Cc3ccccc3)C(=O)O)c(O)c2C(=O)O1` [OTA, Ochratoxin A] as the compound, how does the tolerable weekly intake (European Food Safety Authority) read?
Its tolerable weekly intake is 120 ng/kg of body weight.

What about the IARC carcinogenicity classification (possibly carcinogenic to humans) of the same compound?
Its IARC carcinogenicity classification is “group 2B”.
